# Target: (recombinant) catalytic domain of human Bub1 (amino acids 704-1085) (Homo sapiens (Human), UniProt O43683)
# Test: Bub1 kinase assay (TR-FRET)
# Format: biochemical
# Details: ATP 10 μM final, peptide substrate 1 μM final, 60 min at 22° C., read-out: Biological Assay: Bub1 kinase assay median IC50
# How it was run: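 Compounds were serially diluted 1:3.4 from 2 mM DMSO stocks and incubated with the enzyme reaction for 60 min at 22° C. The reaction was stopped with EDTA, and biotinylated peptide phosphorylation was read by TR-FRET using Eu anti-mouse IgG, anti-phosphoserine antibody and streptavidin-XL665. IC50 was fitted by 4-parameter logistic to inhibition normalized to no-inhibitor and no-enzyme controls.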
# Sequence of (recombinant) catalytic domain of human Bub1 (amino acids 704-1085) (O43683 704-1085): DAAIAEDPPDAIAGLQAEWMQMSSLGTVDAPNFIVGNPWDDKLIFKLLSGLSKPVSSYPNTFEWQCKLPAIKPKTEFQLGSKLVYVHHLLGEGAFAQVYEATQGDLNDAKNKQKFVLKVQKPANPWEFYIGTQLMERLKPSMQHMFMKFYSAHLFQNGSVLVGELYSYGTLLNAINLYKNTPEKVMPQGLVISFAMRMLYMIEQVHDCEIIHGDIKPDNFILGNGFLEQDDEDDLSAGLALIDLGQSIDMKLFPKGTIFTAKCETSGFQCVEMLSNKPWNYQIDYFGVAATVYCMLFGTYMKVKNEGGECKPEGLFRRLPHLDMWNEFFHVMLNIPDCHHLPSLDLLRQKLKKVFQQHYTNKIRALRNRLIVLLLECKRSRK
row,SMILES,IC50 [nM]
1,"O=C1CCCc2[nH]c(-c3ccnc(NCc4cccnc4)c3)c(Nc3ccccc3)c21 [Example 372, 3-(phenylamino)-2-{2-[(pyridin-3-ylmethyl)amino]pyridin-4-yl}-1,5,6,7-tetrahydro-4H-indol-4-one]",9530
2,"O=C1CCC(C(=O)Nc2cc(-c3[nH]c4c(c3Nc3ccccc3)C(=O)CCC4)ccn2)N1 (stereo not drawn) [Example 311, 5-oxo-N-{4-[4-oxo-3-(phenylamino)-4,5,6,7-tetrahydro-1H-indol-2-yl]pyridin-2-yl}-prolinamide]",40.6
3,"O=C1CCCc2[nH]c(-c3cc(Cl)nc(Cl)c3)c(Nc3ccccc3)c21 [Example 217, 2-(2,6-dichloropyridin-4-yl)-3-(phenylamino)-1,5,6,7-tetrahydro-4H-indol-4-one]",> 20000
4,"CC1(C)CC(=O)c2c([nH]c(-c3ccnc(S(N)(=O)=O)c3)c2Nc2ccccc2)C1 [Example 439, 4-[6,6-dimethyl-4-oxo-3-(phenylamino)-4,5,6,7-tetrahydro-1H-indol-2-yl]pyridine-2-sulfonamide]",649
5,"CC1(C)CC(=O)c2c([nH]c(-c3ccncc3)c2Nc2cccc(Cl)c2F)C1 [Example 94, 3-[(3-chloro-2-fluorophenyl)amino]-6,6-dimethyl-2-(pyridin-4-yl)-1,5,6,7-tetrahydro-4H-indol-4-one]",114
6,"CC1(C)OC[C@H](CNc2cc(-c3[nH]c4c(c3Nc3ccccc3)C(=O)CCC4)ccn2)O1 [Example 370, 2-[2-({[(4S)-2,2-dimethyl-1,3-dioxolan-4-yl]methyl}amino)pyridin-4-yl]-3-(phenylamino)-1,5,6,7-tetrahydro-4H-indol-4-one]",1300
7,"CC(C)Nc1cc(-c2[nH]c3c(c2Nc2ccccc2)C(=O)CCC3)ccn1 [Example 364, 3-(phenylamino)-2-[2-(propan-2-ylamino)pyridin-4-yl]-1,5,6,7-tetrahydro-4H-indol-4-one]",502
8,"Cc1ccc(F)c(Nc2c(-c3ccncc3)[nH]c3c2C(=O)CC(C)(C)C3)c1 [Example 82, 3-[(2-fluoro-5-methylphenyl)amino]-6,6-dimethyl-2-(pyridin-4-yl)-1,5,6,7-tetrahydro-4H-indol-4-one]",510
9,"O=C1CCCc2[nH]c(-c3ccnc(NCCCCc4ccccc4)c3)c(Nc3ccccc3)c21 [Example 484, 3-(phenylamino)-2-{2-[(4-phenylbutyl)amino]pyridin-4-yl}-1,5,6,7-tetrahydro-4H-indol-4-one]",907

# These reach a lower IC50. Values come first.
row,IC50 [nM],SMILES
1,29.1,"CC1(C)CC(=O)c2c([nH]c(-c3ccnc(C#N)c3)c2Nc2ccccc2)C1 [Example 46, 4-[6,6-dimethyl-4-oxo-3-(phenylamino)-4,5,6,7-tetrahydro-1H-indol-2-yl]pyridine-2-carbonitrile]"
2,20,"CC(C)C(=O)Nc1cc(-c2[nH]c3c(c2Nc2ccccc2)C(=O)CCC3)ccn1 [Example 230, 2-methyl-N-{4-[4-oxo-3-(phenylamino)-4,5,6,7-tetrahydro-1H-indol-2-yl]pyridin-2-yl}propanamide]"
3,12.2,"CC1(C)CC(=O)c2c([nH]c(-c3ccnc(F)c3)c2Nc2ccccc2)C1 [Example 213, 2-(2-fluoropyridin-4-yl)-6,6-dimethyl-3-(phenylamino)-1,5,6,7-tetrahydro-4H-indol-4-one]"
4,9.55,"CC1(C)CC(=O)c2c([nH]c(-c3ccnc(NC(=O)c4ccc(F)cc4)c3)c2Nc2ccccc2)C1 [Example 267, N-{4-[6,6-dimethyl-4-oxo-3-(phenylamino)-4,5,6,7-tetrahydro-1H-indol-2-yl]pyridin-2-yl}-4-fluorobenzamide]"
5,7.12,"COc1ccc(COCC(=O)Nc2cc(-c3[nH]c4c(c3Nc3ccccc3)C(=O)CCC4)ccn2)cc1 [Example 342, 2-[(4-methoxybenzyl)oxy]-N-{4-[4-oxo-3-(phenylamino)-4,5,6,7-tetrahydro-1H-indol-2-yl]pyridin-2-yl}acetamide]"
6,6.55,"O=C1CC2(CCC2)Cc2[nH]c(-c3ccncc3)c(Nc3ccccc3)c21 [Example 13, 3′-(phenylamino)-2′-(pyridin-4-yl)-1′,7′-dihydrospiro[cyclobutane-1,6′-indol]-4′(5′H)-one]"

# Reference: patent US10428044B2, “3-amino-1,5,6,7-tetrahydro-4H-indol-4-ones” (Bayer Pharma Aktiengesellschaft, priority 2014, dated 2019)
